In assay [1] the target is Factor XIa (Homo sapiens (Human), UniProt P03951). In words: Factor XIa inhibition assay (FLINT) utilizing a fluorophore-quencher pair peptide substrate. The assay is classed as biochemical. To be noted: 30 min preincubation, kinetic reads over 30 min, 5Fam-KLTRAETV-K5Tamra substrate 15 μM; read-out: FXIa Kin Inh IC50. The essentials: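 FXIa ([…]) preincubated 30 min with compound (11-point 3-fold dilution, top 100 nM, 2% DMSO), then 15 μM quenched FXI Arg146-based peptide added; Tris pH 7.5, CaCl2, BSA, CHAPS. Fluorescence 485/520 nm read kinetically every 5 min over 30 min at RT; IC50 by 4-parameter fit.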

In assay [2] the target is human plasma kallikrein (Homo sapiens (Human), UniProt P03952). The assay can be described thus: Kallikrein inhibition assay (FLINT) utilizing a quenched AMC peptide substrate. Format: biochemical. To be noted: 30 min preincubation, read-out: Kallikrein Kin Inh IC50. In outline: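 Fluorogenic Z-Gly-Pro-Arg-AMC cleavage (50 μM substrate, 2 nM kallikrein, Tris pH 7.5, CaCl2, BSA, CHAPS, 2% DMSO) read kinetically at 340/440 nm for 30 min after 30-min compound pre-incubation. Compounds in 11-point 3-fold series from 1 μM; percent inhibition fitted to four-parameter equation for IC50.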

Where [3] appears, read: kinetic reads over 30 min, Z-Gly-Pro-Arg-AMC substrate 50 μM.

The structures appear in SMILES notation. Like-named read-outs stand apart in the source and are kept apart here.

Broadly, the IC50 is the concentration needed to halve the response being measured.

Chain of Factor XIa (P03951 388-625): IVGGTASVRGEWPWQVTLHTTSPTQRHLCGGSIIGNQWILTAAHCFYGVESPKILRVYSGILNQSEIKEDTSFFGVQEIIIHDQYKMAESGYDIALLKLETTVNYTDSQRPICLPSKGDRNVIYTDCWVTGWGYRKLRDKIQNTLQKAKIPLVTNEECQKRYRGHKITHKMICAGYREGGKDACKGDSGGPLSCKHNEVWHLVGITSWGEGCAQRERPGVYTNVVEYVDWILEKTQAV
Chain of Factor XIa (P03951 19-387 partner): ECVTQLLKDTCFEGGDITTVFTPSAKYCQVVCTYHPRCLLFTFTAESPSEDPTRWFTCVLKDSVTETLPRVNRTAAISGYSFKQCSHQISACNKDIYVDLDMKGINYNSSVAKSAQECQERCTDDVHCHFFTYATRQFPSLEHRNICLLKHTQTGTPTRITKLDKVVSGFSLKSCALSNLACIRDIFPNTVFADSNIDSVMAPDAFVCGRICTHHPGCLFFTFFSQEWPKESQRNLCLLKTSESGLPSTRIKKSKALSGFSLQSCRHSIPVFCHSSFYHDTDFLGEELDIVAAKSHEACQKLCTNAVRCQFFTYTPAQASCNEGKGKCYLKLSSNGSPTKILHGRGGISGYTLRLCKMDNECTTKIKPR
Chain of human plasma kallikrein (P03952 391-638): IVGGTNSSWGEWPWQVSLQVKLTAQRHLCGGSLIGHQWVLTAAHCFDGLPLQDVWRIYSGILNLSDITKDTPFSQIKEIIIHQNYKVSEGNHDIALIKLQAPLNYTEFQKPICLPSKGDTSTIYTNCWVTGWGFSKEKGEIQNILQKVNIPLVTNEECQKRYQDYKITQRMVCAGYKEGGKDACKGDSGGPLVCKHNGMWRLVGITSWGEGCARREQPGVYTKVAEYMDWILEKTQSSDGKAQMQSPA
Chain of human plasma kallikrein (P03952 20-390 partner): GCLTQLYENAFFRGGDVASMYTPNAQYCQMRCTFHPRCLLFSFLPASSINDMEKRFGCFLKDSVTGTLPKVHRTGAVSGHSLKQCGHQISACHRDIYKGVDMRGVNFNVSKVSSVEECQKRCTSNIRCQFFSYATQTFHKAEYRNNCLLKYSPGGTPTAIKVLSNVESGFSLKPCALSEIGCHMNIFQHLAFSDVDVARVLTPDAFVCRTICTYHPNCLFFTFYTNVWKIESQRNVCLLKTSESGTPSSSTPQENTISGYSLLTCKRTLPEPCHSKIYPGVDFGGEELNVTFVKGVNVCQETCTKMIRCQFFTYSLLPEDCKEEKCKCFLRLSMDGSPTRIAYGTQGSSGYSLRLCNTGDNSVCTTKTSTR

`CNc1ccc(-c2cnc([C@@H]3CC[C@H]4CC(c5c(-n6cnnn6)ccc(Cl)c5F)=CC(=O)N43)[nH]2)c(F)n1` [Example 291, (3S,8aS)-7-(3-Chloro-2-fluoro-6-(1H-tetrazol-1-yl)phenyl)-3-(5-(2-fluoro-6-(methylamino)pyridin-3-yl)-1H-imidazol-2-yl)-2,3,8,8a-tetrahydroindolizin-5(1H)-one]: the IC50 stood at 0.5 nM in assay [1] and 0.0074 µM in assay [2] (setting [3]).
With `O=C1C=C(c2c(-n3cnnn3)ccc(Cl)c2F)C[C@@H]2CC[C@@H](c3ncc(-c4ccc5[nH]c(=O)[nH]c5c4)[nH]3)N12` [Example 292, 5-(2-((3S,8aS)-7-(3-Chloro-2-fluoro-6-(1H-tetrazol-1-yl)phenyl)-5-oxo-1,2,3,5,8,8a-hexahydroindolizin-3-yl)-1H-imidazol-5-yl)-1,3-dihydro-2H-benzo[d]imidazol-2-one], the values for the IC50 in assay [1] and in assay [2] (setting [3]) were 0.3 nM and 0.0007 µM, respectively.
Turning to `CS(=O)(=O)Nc1ccccc1-c1c[nH]c([C@@H]2CCC3CC(c4c(-n5cnnn5)ccc(Cl)c4F)=CC(=O)N32)n1` (stereo partly drawn) [Example 293, N-(2-(2-((3S)-7-(3-Chloro-2-fluoro-6-(1H-tetrazol-1-yl)phenyl)-5-oxo-1,2,3,5,8,8a-hexahydroindolizin-3-yl)-1H-imidazol-4-yl)phenyl)methanesulfonamide], the IC50 in assay [1] amounted to 79.7 nM; in assay [2] (μM, kinetic reads), 1.2 µM.
As to `CC(C)Oc1ccccc1-c1cnc([C@@H]2CCC3CC(c4c(-n5cnnn5)ccc(Cl)c4F)=CC(=O)N32)[nH]1` (some centres unmarked) [Example 294], the results for the IC50 in assay [1] and in assay [2] (setting [3]) were 77 nM and 0.0462 µM, respectively.
Turning to `O=C1Nc2ccc(-c3cnc([C@@H]4CCC5CC(c6c(-n7cnnn7)ccc(Cl)c6F)=CC(=O)N54)[nH]3)cc2CO1` (stereo partly drawn) [Example 297, 6-(2-((3S)-7-(3-Chloro-2-fluoro-6-(1H-tetrazol-1-yl)phenyl)-5-oxo-1,2,3,5,8,8a-hexahydroindolizin-3-yl)-1H-imidazol-5-yl)-1H-benzo[d][1,3]oxazin-2(4H)-one], the IC50 in assay [1] stood at 0.3 nM; in assay [2] (setting [3]) it was 0.001 µM.
The corresponding values for `O=C(Nc1ccccc1-c1cnc([C@@H]2CC[C@@H]3CC(c4c(-n5cnnn5)ccc(Cl)c4F)=CC(=O)N32)[nH]1)C1CC1` [Example 307, N-(2-(2-((3S,8aR)-7-(3-Chloro-2-fluoro-6-(1H-tetrazol-1-yl)phenyl)-5-oxo-1,2,3,5,8,8a-hexahydroindolizin-3-yl)-1H-imidazol-4-yl)phenyl)cyclopropanecarboxamide] are 0.3 nM and 0.0007 µM.
In the case of `O=C1C=C(c2c(-n3cnnn3)ccc(Cl)c2F)CC2CC[C@@H](c3ncc(-c4ccc5[nH]c(=O)oc5c4)[nH]3)N12` (stereo partly drawn) [Example 309, 6-(2-((3S)-7-(3-Chloro-2-fluoro-6-(1H-tetrazol-1-yl)phenyl)-5-oxo-1,2,3,5,8,8a-hexahydroindolizin-3-yl)-1H-imidazol-4-yl)benzo[d]oxazol-2(3H)-one], the IC50 in assay [1] was found to be 1.9 nM; in assay [2] (setting [3]) it was 0.0013 µM.
As to `O=C1CCc2cc(-c3cnc([C@@H]4CCC5CC(c6c(-n7cnnn7)ccc(Cl)c6F)=CC(=O)N54)[nH]3)ccc2N1` (stereo partly drawn) [Example 311, 6-(2-((3S)-7-(3-Chloro-2-fluoro-6-(1H-tetrazol-1-yl)phenyl)-5-oxo-1,2,3,5,8,8a-hexahydroindolizin-3-yl)-1H-imidazol-5-yl)-3,4-dihydroquinolin-2(1H)-one], the values for the concentration for half-maximal inhibition (IC50) in assay [1] and in assay [2] (setting [3]) were 0.3 nM and 0.0007 µM, respectively.
For `O=C1C=C(c2c(-n3cnnn3)ccc(Cl)c2F)CC2CC[C@@H](c3ncc(-c4ccc5[nH]c(=O)[nH]c5c4)[nH]3)N12` (stereo partly drawn) [Example 312, 5-(2-((3S)-7-(3-Chloro-2-fluoro-6-(1H-tetrazol-1-yl)phenyl)-5-oxo-1,2,3,5,8,8a-hexahydroindolizin-3-yl)-1H-imidazol-5-yl)-1H-benzo[d]imidazol-2(3H)-one], in that order: 0.3 nM and 0.0006 µM.
On to `Nc1n[nH]c2cc(-c3cnc([C@@H]4CCC5CC(c6c(-n7cnnn7)ccc(Cl)c6F)=CC(=O)N54)[nH]3)ccc12` (stereo partly drawn) [Example 313, (3S)-3-(5-(3-Amino-1H-indazol-6-yl)-1H-imidazol-2-yl)-7-(3-chloro-2-fluoro-6-(1H-tetrazol-1-yl)phenyl)-2,3,8,8a-tetrahydroindolizin-5(1H)-one], for which the IC50 is 0.2 nM in assay [1] and 0.0006 µM in assay [2] (setting [3]).
For `O=C1Cc2cc(-c3cnc([C@@H]4CCC5CC(c6c(-n7cnnn7)ccc(Cl)c6F)=CC(=O)N54)[nH]3)ccc2N1` (stereo partly drawn) [Example 314, 5-(2-((3S)-7-(3-Chloro-2-fluoro-6-(1H-tetrazol-1-yl)phenyl)-5-oxo-1,2,3,5,8,8a-hexahydroindolizin-3-yl)-1H-imidazol-5-yl)indolin-2-one], in that order: 1 nM and 0.0032 µM.
The corresponding values for `CN(C)c1ccc(-c2cnc([C@@H]3CCC4CC(c5c(-n6cnnn6)ccc(Cl)c5F)=CC(=O)N43)[nH]2)c(F)n1` (stereo partly drawn) [Example 315, (3S)-7-(3-Chloro-2-fluoro-6-(1H-tetrazol-1-yl)phenyl)-3-(5-(6-(dimethylamino)-2-fluoropyridin-3-yl)-1H-imidazol-2-yl)-2,3,8,8a-tetrahydroindolizin-5(1H)-one] are 31.1 nM and 0.0348 µM.
`COC(=O)Nc1ccc(-c2cnc([C@@H]3CC[C@@H]4CC(c5c(-n6cnnn6)ccc(Cl)c5F)=CC(=O)N43)[nH]2)nc1` [Example 316, Methyl (6-(2-((3S,8aR)-7-(3-chloro-2-fluoro-6-(1H-tetrazol-1-yl)phenyl)-5-oxo-1,2,3,5,8,8a-hexahydroindolizin-3-yl)-1H-imidazol-5-yl)pyridin-3-yl)carbamate]: the figures for the IC50 in assay [1] and in assay [2] (setting [3]) were 5 nM and 0.0255 µM, respectively.
As to `COc1ccccc1-c1c[nH]c([C@@H]2CCC3CC(c4c(-n5cnnn5)ccc(Cl)c4F)=CC(=O)N32)n1` (stereo partly drawn) [Example 317, (3S)-7-(3-Chloro-2-fluoro-6-(1H-tetrazol-1-yl)phenyl)-3-(4-(2-methoxyphenyl)-1H-imidazol-2-yl)-2,3,8,8a-tetrahydroindolizin-5(1H)-one], the values for the IC50 in assay [1] and in assay [2] (setting [3]) were 5.3 nM and 0.0129 µM, respectively.
The corresponding values for `O=C1OCCN1c1ccc(-c2cnc([C@@H]3CCC4CC(c5c(-n6cnnn6)ccc(Cl)c5F)=CC(=O)N43)[nH]2)cc1` (stereo partly drawn) [Example 318, 3-(4(2-((3S)-7-(3-Chloro-2-fluoro-6-(1H-tetrazol-1-yl)phenyl)-5-oxo-1,2,3,5,8,8a-hexahydroindolizin-3-yl)-1H-imidazol-5-yl)phenyl)oxazolidin-2-one] are 54.1 nM and 0.0715 µM.
As for `COC(=O)Nc1ccc(-c2cnc([C@@H]3CCC4CC(c5c(OCC(F)(F)F)ccc(Cl)c5F)=CC(=O)N43)[nH]2)cc1` (stereo partly drawn) [Example 324, Methyl (4-(2-((3S)-7-(3-Chloro-2-fluoro-6-(2,2,2-trifluoroethoxy)phenyl)-5-oxo-1,2,3,5,8,8a-hexahydroindolizin-3-yl)-1H-imidazol-5-yl)phenyl)carbamate], the results for the IC50 in assay [1] and in assay [2] (setting [3]) were 14.3 nM and 0.095 µM, respectively.
Turning to `COC(=O)Nc1ccc(-c2cnc([C@@H]3CCC4CC(c5c(-n6cnnn6)ccc(Cl)c5F)=CC(=O)N43)[nH]2)cn1` (stereo partly drawn) [Example 325, Methyl (5-(2-((3S)-7-(3-Chloro-2-fluoro-6-(1H-tetrazol-1-yl)phenyl)-5-oxo-1,2,3,5,8,8a-hexahydroindolizin-3-yl)-1H-imidazol-5-yl)pyridin-2-yl)carbamate], the IC50 worked out at 1.2 nM in assay [1] and 0.007 µM in assay [2] (setting [3]).
As to `COC(=O)Nc1ccc(-c2cnc([C@@H]3CCC4CC(c5c(-n6cnnn6)ccc(Cl)c5F)=CC(=O)N43)[nH]2)nc1` (stereo partly drawn) [Example 326, Methyl (6-(2-((3S)-7-(3-Chloro-2-fluoro-6-(1H-tetrazol-1-yl)phenyl)-5-oxo-1,2,3,5,8,8a-hexahydroindolizin-3-yl)-1H-imidazol-5-yl)pyridin-3-yl)carbamate], the half-inhibitory concentration (IC50) turned out to be 1 nM in assay [1] and 0.0124 µM in assay [2] (setting [3]).
Take `CO[C@@H]1C[C@@H](c2nc(-c3ccc(N)nc3F)c[nH]2)N2C(=O)C=C(c3c(-n4cnnn4)ccc(Cl)c3F)CC12` (stereo partly drawn) [Example 327, (1R,3S)-3-(4-(6-Amino-2-fluoropyridin-3-yl)-1H-imidazol-2-yl)-7-(3-chloro-2-fluoro-6-(1H-tetrazol-1-yl)phenyl)-1-methoxy-2,3,8,8a-tetrahydroindolizin-5(1H)-one]: the IC50 in assay [1] amounted to 0.6 nM; in assay [2] (setting [3]), 0.0095 µM.
For `CC1CC2CC(c3c(-n4cnnn4)ccc(Cl)c3F)=CC(=O)N2C1c1ncc(-c2ccc(N)nc2F)[nH]1` (centres unmarked) [Example 328, 3-(5-(6-Amino-2-fluoropyridin-3-yl)-1H-imidazol-2-yl)-7-(3-chloro-2-fluoro-6-(1H-tetrazol-1-yl)phenyl)-2-methyl-2,3,8,8a-tetrahydroindolizin-5(1H)-one], in that order: 3.4 nM and 0.0459 µM.
On to `CC(C)C(=O)Nc1ccccc1-c1c[nH]c([C@@H]2CCC3CC(c4c(-n5cnnn5)ccc(Cl)c4F)=CC(=O)N32)n1` (stereo partly drawn) [Example 329, N-(2-(2-((3S)-7-(3-Chloro-2-fluoro-6-(1H-tetrazol-1-yl)phenyl)-5-oxo-1,2,3,5,8,8a-hexahydroindolizin-3-yl)-1H-imidazol-4-yl)phenyl)isobutyramide], for which the results for the IC50 in assay [1] and in assay [2] (setting [3]) were 0.5 nM and 0.0013 µM, respectively.
With `O=C(Nc1ccccc1-c1c[nH]c([C@@H]2CCC3CC(c4c(-n5cnnn5)ccc(Cl)c4F)=CC(=O)N32)n1)C1CCCC1` (some centres unmarked) [Example 330], the results for the IC50 in assay [1] and in assay [2] (setting [3]) were 0.9 nM and 0.0024 µM, respectively.

The values are drawn from patent publication US20230295157A1, “3-(1H-IMIDAZOL-2-YL)-2,3,8,8A-TETRAHYDROINDOLIZIN-5(1H)-ONE DERIVATIVES USEFUL AS FACTOR XIA INHIBITORS” (JANSSEN PHARMACEUTICA NV, priority 2020, published 2023).
